Data set [1] can be described thus: Non-enzymatic superoxide anion radical scavenging assay (PMS). As to conditions: 0.1 mM. The procedure:
(§1) In this work, the carboxamides 3a–3u, the quinolinone–cinnamic or benzoic acid hybrids 11a–11g and the reverse amides 16a–16c were tested for their antioxidant activity via five in vitro techniques; (i) the interaction with the stable free radical 2,2-diphenyl-1-picrylhydrazyl (DPPH); (ii) the inhibition of lipid peroxidation; (iii) the hydroxyl radical scavenging ability; (iv) the 2,2-azino-bis(3-ethylbenzothiazoline-6-sulfonic acid (ABTS) radical cation (ABTS·^+) reduction; and (v) the superoxide anion radical scavenging ability.
The experimental technique used for this assay was performed according to our previous works. Caffeic acid was used as an appropriate standard.

Data set [2] concerns the target T1, soybean lipoxygenase (Glycine max, UniProt P08170).
T1 construct: purchased Sigma Chemical, Co. (St. Louis, MO, USA)
T1 sequence (P08170 1-839): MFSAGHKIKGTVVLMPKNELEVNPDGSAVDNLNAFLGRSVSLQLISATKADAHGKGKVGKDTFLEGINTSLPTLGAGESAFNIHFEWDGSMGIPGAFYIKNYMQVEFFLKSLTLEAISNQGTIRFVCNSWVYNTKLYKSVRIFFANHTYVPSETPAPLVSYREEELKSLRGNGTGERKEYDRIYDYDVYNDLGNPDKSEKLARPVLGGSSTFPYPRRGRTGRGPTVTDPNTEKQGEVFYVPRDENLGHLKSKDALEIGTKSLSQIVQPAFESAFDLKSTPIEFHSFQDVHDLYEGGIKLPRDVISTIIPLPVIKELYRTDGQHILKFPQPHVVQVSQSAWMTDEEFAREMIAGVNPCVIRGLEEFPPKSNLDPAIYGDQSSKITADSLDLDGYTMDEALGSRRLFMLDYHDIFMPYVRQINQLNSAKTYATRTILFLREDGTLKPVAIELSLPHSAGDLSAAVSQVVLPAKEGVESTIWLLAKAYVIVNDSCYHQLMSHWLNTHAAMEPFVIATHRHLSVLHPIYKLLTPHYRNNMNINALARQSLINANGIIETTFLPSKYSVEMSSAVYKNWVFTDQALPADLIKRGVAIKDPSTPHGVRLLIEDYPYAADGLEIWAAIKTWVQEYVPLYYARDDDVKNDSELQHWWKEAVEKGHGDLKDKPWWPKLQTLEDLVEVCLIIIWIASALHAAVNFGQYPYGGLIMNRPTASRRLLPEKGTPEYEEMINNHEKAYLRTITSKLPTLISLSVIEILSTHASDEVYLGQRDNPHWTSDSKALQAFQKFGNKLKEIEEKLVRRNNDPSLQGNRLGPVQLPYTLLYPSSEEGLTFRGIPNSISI
Briefly: Soybean LOX inhibition in vitro (UV absorbance-based assay). In kind it is biochemical. The procedure: For this study, the UV absorbance-based soybean LOX assay was used.
The assay for the determination of the inhibition of soybean LOX was performed according to the methods of Hadjipavlou-Litina et al., which we have also used in our previous works.

The nature of data set [3]: ABTS radical cation decolorization assay. As to conditions: 0.1 mM. On the procedure: as §1
The experimental technique used in this section was performed according to the methods of Pontiki et al.. The results were compared to the appropriate standard inhibitor Trolox.

The nature of data set [4]: Interaction with the stable free radical DPPH (reducing activity). The note with it: for Interaction with the Free Radical DPPH (%): 100 μM; for DPPH radical scavenging activity, time not specified: reaction time not given. On the procedure: as §1
Background: Loss of DPPH colour is used to gauge radical scavenging.

Data set [5] in a line: Inhibition of lipid peroxidation of linoleic acid induced by AAPH radical. The note with it: 100 μM. On the procedure: as §1
The assay for the determination of the inhibition of linoleic acid peroxidation induced by the free radical initiator […](2-amidinopropane) dihydrochloride (AAPH) was performed according to the methods of Hadjipavlou-Litina et al., which we have also used in our previous works.

Data set [6] is described as follows: Competition with DMSO for hydroxyl radicals. As to conditions: 0.1 mM. The procedure: as §1
The assay was performed according to the methods of Pontiki et al. Trolox was used as a reference compound [78].

Details of data set [7]: method as in PMID 16955399, PMID 26834836. The note with it: more potent than linomide; cited from earlier work.

Usually inhibition stands for the share of the control response that was lost under treatment. A higher inhibition goes with strong suppression. For orientation: IC50 means the midpoint of a concentration-inhibition curve. As usually defined, the melting point is the temperature of the solid-liquid transition.

For the compound `Cn1c(=O)c(C(=O)NCCc2ccc(O)cc2)c(O)c2ccccc21` [Compound 3o, 4-hydroxy-N-(4-hydroxyphenethyl)-1-methyl-2-oxo-1,2-dihydroquinoline-3-carboxamide], the “PMS% (superoxide anion radical scavenging)” value (shortened to “PMS%”) in data set [1] is reported as “no”. Besides, the “Inhibition of Soybean Lipoxygenase % at 0.1 mM” value in data set [2] (0.1 mM) is recorded as “no”. Further, the “ABTS% (ABTS radical cation decolorization)” value (shortened to “ABTS%”) in data set [3] worked out at 20.6%. In addition, the “Interaction with the Free Radical DPPH (%)” value in data set [4] (20 min) is given as 20.8%; in data set [4] (60 min), 8.0%. Moreover, in data set [5], the “Inhibition of Lipid Peroxidation of Linoleic Acid Induced by AAPH Radical (%)” value (shortened to “Inhibition of Lipid Peroxidation … (%)”) amounted to 100%. In addition, the “OH% (hydroxyl radical scavenging)” value in data set [6] was found to be 44.3%.

`Cc1ccc(NC(=O)c2c(O)c3ccccc3n(-c3ccccc3)c2=O)cc1` [Compound 3r, 4-hydroxy-2-oxo-1-phenyl-N-(p-tolyl)-1,2-dihydroquinoline-3-carboxamide]: the “PMS%” value in data set [1] is recorded as “no”. For the same compound, in data set [2] (0.1 mM), the “Inhibition of Soybean Lipoxygenase % at 0.1 mM” value was found to be 37.4% and 100 µM produced 37.5% inhibition. Further, the “ABTS%” value in data set [3] is reported as “no”. In addition, in data set [4] (20 min), the “Interaction with the Free Radical DPPH (%)” value was 12.1%. The “Interaction with the Free Radical DPPH (%)” value in data set [4] (60 min) was 1.2%. Besides, the “DPPH radical scavenging activity, time not specified” value in data set [4] was “inactive”. In data set [5], the “Inhibition of Lipid Peroxidation … (%)” value is given as 17.1%. The “OH% (hydroxyl radical scavenging)” value in data set [6] is given as 50.7%.

Take `O=C(Nc1ccc(F)cc1)c1c(O)c2ccccc2n(-c2ccccc2)c1=O` [Compound 3s, N-(4-fluorophenyl)-4-hydroxy-2-oxo-1-phenyl-1,2-dihydroquinoline-3-carboxamide]: the “PMS%” value in data set [1] is listed as “no”. The half-maximal inhibitory concentration (IC50) in data set [2] was found to be 10 µM. Further, the “ABTS%” value in data set [3] is given as “no”. Besides, the “Interaction with the Free Radical DPPH (%)” value in data set [4] (20 min) was 21.2%; in data set [4] (60 min) it was 8.1%. Moreover, the “DPPH radical scavenging activity, time not specified” value in data set [4] was “inactive”. Moreover, the “Inhibition of Lipid Peroxidation … (%)” value in data set [5] is recorded as 28.9%. In addition, the “OH% (hydroxyl radical scavenging)” value in data set [6] is reported as 100%.

For the compound `Cn1c(=O)c(C(=O)Nc2ccncc2)c(O)c2ccccc21` [Compound 3t, 4-hydroxy-1-methyl-2-oxo-N-(pyridin-4-yl)-1,2-dihydroquinoline-3-carboxamide], in data set [1], the “PMS%” value is “no”. The “Inhibition of Soybean Lipoxygenase % at 0.1 mM” value in data set [2] (0.1 mM) was “inactive and no”. The “ABTS%” value in data set [3] was “no”. Also, the “Interaction with the Free Radical DPPH (%)” value in data set [4] (20 min) worked out at 19.7%; in data set [4] (60 min), 9.5%. Further, the “Inhibition of Lipid Peroxidation … (%)” value in data set [5] is listed as 100%. For the same compound, the “OH% (hydroxyl radical scavenging)” value in data set [6] was “inactive and no”.

With `CCn1c(=O)c(C(=O)NCCN)c(O)c2ccccc21` [Compound 7, N-(2-Aminoethyl)-1-ethyl-4-hydroxy-2-oxo-1,2-dihydroquinoline-3-carboxamide], the melting point was 161 °C.

Regarding `COc1cccc2c1c(O)c(C(=O)N(C)c1ccc(C(F)(F)F)cc1)c(=O)n2C` [Tasquinimod], in data set [7], the “Anti-tumor potency relative to linomide” value is recorded as 30–60 times.

The values are drawn from PMC10780633, “Novel Multi-Target Agents Based on the Privileged Structure of 4-Hydroxy-2-quinolinone” (Molecules, 2023).
